Assay results from patent US7618984B2, “Sulfonamide compound” (Asahi Kasei Pharma Corporation, priority 2005, dated 2009).
Counter-ions that a name gives are not always drawn.

What was measured:
neutrophils = test: Neutrophil migration inhibitory action, Boyden Chamber, FMLP (Test Example 3); type: cell-based; conditions: 0.5 h, human neutrophils, FMLP 1 μM, 37° C., 30 minutes, read-out: IC50, compound concentration providing a migration inhibition ratio of 50%
Method: Neutrophils were isolated from 50 to 100 ml of peripheral blood collected from healthy human donors by the method described in Test Example 1 to obtain a cell suspension (8×10^6/ml). Subsequently, solutions of a test compound at various concentrations were introduced into wells of a 96-well plate in a volume of 125 μl per well, the cell suspension of an equivalent volume was added to it and the plate was preincubated at room temperature for 5 minutes. During the preincubation, FMLP (1 μM, Sigma) solution was added to the lower chamber to set Boyden Chamber, the preincubated cell suspension was added to the upper chamber in a volume of 200 μl per well, and the cells were allowed to migrate at 37° C. under 5% carbon dioxide for 30 minutes. The filter after the migration was collected, and the non-migrated cells adhered to the surface that faced the upper chamber were carefully wiped off. Then, the migrated cells on the back surface were stained with DifQuick dye solution (International Reagents), washed with water and dried, and then absorbance was measured at 595 nm. The inhibition ratio against migration (%) of a test compound was calculated by using the following equation: Migration inhibition ratio(%)=(1−Absorbance of the group with addition of test compound/Absorbance of the group without addition of test compound)×100
Further, the migration inhibitory ratio was calculated with changing the test compound concentration, and a compound concentration providing an inhibition ratio of 50% was obtained as IC50.

[1] = tested on: rabbit normal intraocular pressure; test: Intraocular pressure reducing action (Test Example 2); type: in vivo, Japanese white rabbit; conditions: Oryctolagus cuniculus, topical; 3 mM aqueous solution, 50 μl to the left eye; measured after 2, 4 and 6 hours; read-out: intraocular pressure reducing degree (max ΔIOP / intraocular pressure value immediately before administration × 100)
Method: A Japanese white rabbit having a body weight of about 2 kg was placed in a positioner and naturalized for one week before the experiment. An opthalmologic local anesthesant (Benoxil) was administered to both eyes, and then intraocular pressure was measured by using a tonometer (Classic 30, Solan). A 3 mM aqueous solution of a test compound was administered in a volume of 50 μl to the left eye, and the right eye was not treated (control eye). The intraocular pressure values were measured for the left and right eyes immediately before, and 2, 4 and 6 hours after the administration of the aqueous solution of the test compound, and the difference of the measured values for the left and right eyes was considered an intraocular pressure reduction value of the test medicament at each measurement time. The largest difference of the values for the left and right eyes among the measured values at the measurement times (after 2, 4 and 6 hours) was considered the maximum intraocular pressure reduction value (max ΔIOP) of each test medicament. The intraocular pressure reducing degree representing the intraocular pressure reducing action of each test medicament was calculated according to the following formula. Since rabbits show significant daily variation of intraocular pressure, daily variation is added when change of intraocular pressure is measured over time, and the intraocular pressure reducing action may be overestimated. Therefore, we used this calculation method of intraocular pressure reduction value in order to minimize the influence of the variation. Intraocular pressure reducing degree (%)=(max ΔIOP/Intraocular pressure value immediately before administration)×100

[2] = tested on: phosphorylation of myosin regulatory light chain; test: Inhibitory action on phosphorylation of myosin regulatory light chain (Test Example 1); type: cell-based; conditions: Neutrophil, 5 min; human peripheral blood neutrophils, 25° C. for 5 minutes; read-out: IC50, compound concentration providing a phosphorylation inhibition ratio of 50% (myosin regulatory light chain)
Method: A volume of 50 to 100 ml of peripheral blood collected from healthy volunteers was centrifuged by using Mono-Poly separator solution (Dainippon Pharmaceutical) to prepare a neutrophil containing fraction. The neutrophils were washed with PBS(−) and resuspended in Hanks' Balanced Salt Solution (HBSS+, Gibco) to prepare a cell suspension (8×10^6/ml). The cell suspension was diluted to 5×10^6/ml, introduced into Eppendorf tubes in a volume of 0.4 ml each, then 0.1 ml each of solutions of a test compound at various concentrations were added to the suspension and allowed to react at 25° C. for 5 minutes. After the reaction, 0.1 ml of trichloroacetic acid solution was added to each reaction mixture, the reaction mixture was gently shaken and centrifuged at 12,000 rpm (4° C., 5 minutes), and the supernatant was removed. Subsequently, 3 μl of 1 M Tris solution was added to the residue, the mixture was further mixed with 50 μl of extraction buffer (8 M urea, 0.02% 2-mercaptoethanol, 0.002% bromophenol blue) and left stand at room temperature for 1 hour. Then, the reaction mixture was loaded on a spin column (0.45 μm, Millipore) to remove the insoluble solids and a sample buffer for SDS polyacrylamide gel electrophoresis (25 mM, Tris-HCl pH 6.8, 2.5% 2-mercaptoethanol, 2% sodium dodecylsulfate, 5% sucrose, 0.002% bromophenol blue as final concentrations) was added, and 10 μl of each sample was subjected to electrophoresis.
The gel after the electrophoresis was blotted on a nitrocellulose membrane (BioRad), blocked with 5% skim milk, and reacted successively with antibodies pLC1 (Sakurada K. et al, Am. J. Physiol., 274, C1563-C1572 (1998)), which specifically recognize the phosphorylated myosin regulatory light chain, and donkey anti-mouse IgG (Chemicon) conjugated with horseradish peroxidase. The band of the phosphorylated myosin regulatory light chain was detected on a film by using ECL Plus Kit (Amersham Pharmacia Biotech). This band was subjected to quantification using a densitometer. By using this value, the inhibitory ratio (%) for phosphorylation of the myosin regulatory light chain was calculated by using the following equation. Phosphorylation inhibition ratio(%)=1−(Band intensity of phosphorylated myosin regulatory light chain with addition of the test compound/Band intensity of phosphorylated myosin regulatory light chain without addition of the test compound)×100
Further, the phosphorylation inhibition ratio was calculated with changing the concentrations of the test compound, and a compound concentration providing an inhibition ratio of 50% was obtained as IC50.

[3] = tested on: rabbit intraocular pressure; test: Rabbit intraocular pressure reduction enhancing action, combination use (Test Example 6-1); type: in vivo, Japanese white rabbit; conditions: 50 μL, difference of left and right eyes, 2, 4 and 6 hours
Method: However, the effect is not limited to the 19-1 compound, and the ophthalmic solution concentration of the 19-1 compound is not limited to those used in this test example. Moreover, as for the test compound used for combination use, similar effect can be obtained also with the compounds of the present invention represented with the example numbers mentioned in Test Example 2.
As a test compound, the 19-1 compound was dissolved in physiological saline, and the solution was neutralized by addition of sodium hydroxide (pH 7.0 to 8.0) to prepare a 0.01 weight % aqueous solution (19-1 compound aqueous solution). As the drugs for combination use, isopropyl unoprostone (trade name: Rescula, Santen Pharmaceutical) was used as a prostaglandin-related drug, and brinzolamide hydrochloride (trade name: Azopt, Alcon Japan) was used as […], as the marketed formulations as they were.
A Japanese white rabbit having a body weight of about 2 kg was placed in a positioner and naturalized for one week before the experiment. An opthalmologic local anesthesant (Benoxil) was administered to both eyes, and then intraocular pressure before instillation was measured by using a tonometer (Classic 30, Solan). A test aqueous solution or the drug for combination use was administered to the left eye, and the right eye was not treated (control eye). The test groups consisted of (1) control group, (2) group instilled only with the 19-1 compound aqueous solution (single drug group 1), (3) group instilled only with the drug for combination use (single drug group 2), and (4) group instilled with the drug for combination use and the 19-1 compound aqueous solution (combination use group), and six rabbits were used for each group. As for the rabbits of these groups, 50 μL of physiological saline was first instilled to the control group, single drug group 1, and single drug group 2, and the drug for combination use was first instilled in the same volume to the combination use group. […] The intraocular pressure thereafter was measured for each group 2, 4 and 6 hours after the second administration of the test compound, and the difference of the measured values for the left and right eyes at each measurement time was considered an intraocular pressure reduction value of each group. The largest difference of the intraocular pressure values for the left and right eyes among those of the measured values of the measurement times was considered the maximum intraocular pressure reduction value (max ΔIOP) of each drug group.

[4] = tested on: rabbit intraocular pressure; test: Rabbit intraocular pressure reduction enhancing action, combination with timolol maleate (Test Example 6-2); type: in vivo, Japanese white rabbit; conditions: 0.01 weight % 19-1 compound aqueous solution and/or timolol maleate (Timoptol), 50 μL; difference relative to the control group, 1, 2 and 4 hours
Method: As a test compound, the 19-1 compound was dissolved in physiological saline, and the solution was neutralized by addition of sodium hydroxide (pH 7.0 to 8.0) to prepare a 0.01 weight % aqueous solution (19-1 compound aqueous solution). As a drug for combination use, timolol maleate (trade name: Timoptol, Santen Pharmaceutical) was used as an adrenergic receptor β blocker, as the marketed formulation as it was.
A Japanese white rabbit having a body weight of about 2 kg was placed in a positioner and naturalized for one week before the experiment. An opthalmologic local anesthesant (Benoxil) was administered to both eyes, and then intraocular pressure before instillation was measured by using a tonometer (Classic 30, Solan). […] The intraocular pressure thereafter was measured for each group 1, 2 and 4 hours after the second administration of the test compound, and the difference of the measured values at each measurement time for the each group and the control group was considered an intraocular pressure reduction value of each group. The largest difference of the intraocular pressure values relative to the control group among those of the measured values of the measurement times was considered the maximum intraocular pressure reduction value (max ΔIOP) of each drug group.

| Compound | IC50 (neutrophils) | inhibition in vivo at 3000 µM [1] | IC50 [2] | Max ΔIOP (maximum intraocular pressure reduction value), Table 2 ([3]; 0.01 weight % 19-1 compound aqueous solution and/or brinzolamide hydrochloride (Azopt)) | Max ΔIOP (maximum intraocular pressure reduction value), Table 3 ([3]; 0.01 weight % 19-1 compound aqueous solution and/or isopropyl unoprostone (Rescula)) | Max ΔIOP (maximum intraocular pressure reduction value), Table 4 [4] |
| --- | --- | --- | --- | --- | --- | --- |
| Cc1cncc2cccc(S(=O)(=O)N3CCC[C@@H](N)C3)c12 [Example 22-2, (R)-3-Amino-1-(4-methyl-5-isoquinolinesulfonyl)piperidine] | 10 to 40 µM | 10 to 20% | < 10 µM |  |  |  |
| CCc1cncc2cccc(S(=O)(=O)N3CC[C@H](N)C3)c12 [Example 23-1, (S)-3-Amino-1-(4-ethyl-5-isoquinolinesulfonyl)pyrrolidine] | 10 to 40 µM | 10 to 20% | < 10 µM |  |  |  |
| Cc1cnc(O)c2cccc(S(=O)(=O)N3CC[C@H](N)C3)c12 [Example 25-1, (S)-3-Amino-1-(1-hydroxy-4-methyl-5-isoquinolinesulfonyl)pyrrolidine] | < 10 µM | 10 to 20% | < 10 µM |  |  |  |
| Cc1cncc2cccc(S(=O)(=O)N3CC(N)C3)c12 [Example 26, 3-Amino-1-(4-methyl-5-isoquinolinesulfonyl)azetidine] | 10 to 40 µM | 5 to 10% | < 10 µM |  |  |  |
| CN[C@@H]1CCN(S(=O)(=O)c2cccc3cncc(C)c23)C1 [Example 27, (R)-3-(Methylamino)-1-(4-methyl-5-isoquinolinesulfonyl)pyrrolidine] | 10 to 40 µM | 5 to 10% | < 10 µM |  |  |  |
| CN[C@@H]1CCN(S(=O)(=O)c2cccc3cncc(Cl)c23)C1 [Example 32-2, (R)-1-(4-Chloro-5-isoquinolinesulfonyl)-3-(methylamino)pyrrolidine] | 10 to 40 µM | 10 to 20% | < 10 µM |  |  |  |
| CN[C@H]1CCN(S(=O)(=O)c2cccc3c(O)ncc(Cl)c23)C1 [Example 36-1, (S)-1-(1-Hydroxy-4-chloro-5-isoquinolinesulfonyl)-3-(methylamino)pyrrolidine] | < 10 µM | 10 to 20% | < 10 µM |  |  |  |
| CCN[C@H]1CN(CCCOC)S(=O)(=O)c2sc(S(N)(=O)=O)cc21 [brinzolamide hydrochloride, reference compound] |  |  |  | 2.3 mmHg |  |  |
| CCCCCCCC(=O)CC[C@@H]1[C@@H](C/C=C\CCCC(=O)OC(C)C)[C@@H](O)C[C@H]1O [isopropyl unoprostone, reference compound] |  |  |  |  | 4.4 mmHg |  |
| CC(C)(C)NC[C@H](O)COc1nsnc1N1CCOCC1 [timolol maleate, reference compound] |  |  |  |  |  | 1.9 mmHg |
